According to patent publication US8680052B1, “Methods of treating, reducing the incidence of, and/or preventing ischemic events” (The Medicines Company, priority 2013, dated 2014):

Assays:
[1] = biological target: T1, P2Y12 receptor (Homo sapiens, UniProt Q9H244); assay: Example 4: VerifyNow P2Y12 assay, platelet reactivity in PRU; format: in vivo
T1 construct: from tissue; host or cells: platelets in whole blood of patients
Procedure: The study involved 12 patients who met the criteria of being 18-75 years of age, having coronary artery disease (CAD) documented by a previous MI or coronary revascularization, and taking 81 mg of aspirin daily. […] Use of non-steroidal anti-inflammatory agents was discouraged during study participation but not prohibited.
(§1) Each patient was administered a 30 μg/kg bolus of cangrelor followed immediately by a 2 hr infusion at a rate of 4.0 μg/kg/min. A loading dose of ticagrelor (180 mg) was given after 0.5 hr or 1.25 hr (n=6 for each). Blood for pharmacodynamic platelet function studies was taken after 0.5 or 1.25 hr (corresponding to the time of ticagrelor load, n=6 for each), and then at 1.75, 2, 2.25, 2.5, 2.75, 3, 4, and 5.25 hr. Patients were assigned randomly to receive either 6 (n=6) or 7 (n=6) doses of ticagrelor to be taken every 12 hours following the discontinuation of the infusion of cangrelor. On study day 5, each patient was administered a 30 μg/kg bolus of cangrelor followed immediately by a 2 hr infusion at a rate of 4.0 μg/kg/min. Blood for pharmacodynamic assessment was taken after 1 and 2 hr. Adverse events were queried throughout study participation that ended with a telephone interview performed on study day 10-12.
(§2) Pharmacodynamic assessment included light transmission aggregometry (LTA), VerifyNow® P2Y12 assay, vasodilator-stimulated phosphoprotein (VASP) index, and platelet activation measured with the use of flow cytometry. Assessment of LTA, VerifyNow®, and platelet activation with the use of flow cytometry was performed within 30 min of blood being taken. In the case of flow cytometry, samples were processed to fixation and then batched for analysis. For VASP, index samples were batched and processed as recommended by the vendor within 2 h of blood being taken. This approach limited the time from fixation of VASP index to flow analysis to less than 1 h.
(§3) LTA induced by 5 μM and 20 μM adenosine diphosphate (ADP) was quantified ex vivo (i.e. in non-adjusted platelet rich plasma). Platelet-poor plasma was set as 100% aggregation, and both maximal (peak) and terminal (at 300 s) aggregation were measured with a PAP4 aggregometer (BioData, Horsham, Pa.). VerifyNow® P2Y12 assay (Accumetrics Inc, San Diego, Calif.) that measures the effects of drugs on the P2Y12 receptor by activating platelets with prostaglandin El in addition to ADP was used in accordance with the instructions provided by the manufacturer. Platelet reactivity was expressed in P2Y12 reaction units (PRU). Activation of platelets was identified with the use of flow cytometry as previously described.^17. And to determine the VASP index, a commercially available kit (Diagnostica Stago, Inc, Parsippany NJ) was used. ^17 Schneider D J, Sobel B E. Streamlining the design of promising clinical trials: in-vitro testing of antithrombotic regimens and multiple agonists of platelet activation. Coron Artery Dis. 2009; 20:175-8.

[2] = system: vasodilator-stimulated phosphoprotein (VASP); assay: Example 4: vasodilator-stimulated phosphoprotein (VASP) index; format: in vivo, human
Procedure: The study involved 12 patients who met the criteria of being 18-75 years of age, having coronary artery disease (CAD) documented by a previous MI or coronary revascularization, and taking 81 mg of aspirin daily. […] Prohibited concomitant medications included strong and potent CYP3A inhibitors, simvastatin and lovastatin at doses more than 40 mg/day, omeprazole or esomeprazole, and digoxin. Use of non-steroidal anti-inflammatory agents was discouraged during study participation but not prohibited.
as §1, §2, §3

[3] = Study Day 1, 1.75 h, Ticagrelor at 0.5 hr
[4] = Study Day 1, 1.75 h, Ticagrelor at 1.25 hr
[5] = Study Day 1, 2.0 h, Ticagrelor at 0.5 hr
[6] = Study Day 1, 2.0 h, Ticagrelor at 1.25 hr
[7] = Study Day 1, reference 0.5/1.25 h, All
[8] = Study Day 1, reference 0.5/1.25 h, Ticagrelor at 0.5 hr
[9] = Study Day 1, reference 0.5/1.25 h, Ticagrelor at 1.25 hr
[10] = Study Day 5, 1.0 h, Ticagrelor 6 doses
[11] = Study Day 5, 1.0 h, Ticagrelor 7 doses
[12] = Study Day 5, 2.0 h, Ticagrelor 6 doses
[13] = Study Day 5, 2.0 h, Ticagrelor 7 doses
[14] = reference 5.25 h, Ticagrelor at 0.5 h
[15] = reference 5.25 h, Ticagrelor at 1.25 h

T1 sequence (Q9H244 whole entry): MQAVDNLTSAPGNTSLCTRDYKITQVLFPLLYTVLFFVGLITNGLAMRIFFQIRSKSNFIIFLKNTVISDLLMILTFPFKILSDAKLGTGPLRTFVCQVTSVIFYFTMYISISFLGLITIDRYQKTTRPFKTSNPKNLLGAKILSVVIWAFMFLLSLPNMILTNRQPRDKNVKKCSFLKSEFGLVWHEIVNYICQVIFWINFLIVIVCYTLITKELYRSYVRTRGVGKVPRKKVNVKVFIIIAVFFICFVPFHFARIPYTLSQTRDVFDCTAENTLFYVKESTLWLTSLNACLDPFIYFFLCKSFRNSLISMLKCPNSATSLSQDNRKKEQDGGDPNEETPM

With `CSCCNc1nc(SCCC(F)(F)F)nc2c1ncn2[C@@H]1O[C@H](COP(=O)(O)OP(=O)(O)C(Cl)(Cl)P(=O)(O)O)[C@@H](O)[C@H]1O` [Cangrelor, cangrelor] the “VerifyNow IPR” value ([1]; Study Day 1, 1.75 h, All) was 99 ± 1, the “VerifyNow PRU” value ([1]; Study Day 1, 1.75 h, All) was 3.8 ± 2.6 PRU and the “VerifyNow IPR” value [1, 3] was 99 ± 1. The “VerifyNow PRU” value [1, 3] was 3.8 ± 2.6 PRU, the “VerifyNow IPR” value [1, 4] was 99 ± 1 and the “VerifyNow PRU” value [1, 4] was 3.7 ± 2.8 PRU. The “VerifyNow IPR” value ([1]; Study Day 1, 2.0 h, All) was 98 ± 3, the “VerifyNow PRU” value ([1]; Study Day 1, 2.0 h, All) was 6.4 ± 7.5 PRU and the “VerifyNow IPR” value [1, 5] was 97 ± 2. The “VerifyNow PRU” value [1, 5] was 6.9 ± 4.9 PRU, the “VerifyNow IPR” value [1, 6] was 98 ± 4 and the “VerifyNow PRU” value [1, 6] was 5.9 ± 9.9 PRU. For the same compound, the “VerifyNow IPR” value [1, 7] was 97 ± 3, the “VerifyNow PRU” value [1, 7] was 7.3 ± 9.3 PRU and the “VerifyNow IPR” value [1, 8] was 97 ± 4. The “VerifyNow PRU” value [1, 8] was 8.8 ± 12 PRU, the “VerifyNow IPR” value [1, 9] was 98 ± 3 and the “VerifyNow PRU” value [1, 9] was 5.8 ± 7.3 PRU. For the same compound, the “VerifyNow IPR” value ([1]; Study Day 5, 1.0 h, All) was 99 ± 1, the “VerifyNow PRU” value ([1]; Study Day 5, 1.0 h, All) was 3.3 ± 2 PRU and the “VerifyNow IPR” value [1, 10] was 99 ± 1. The “VerifyNow PRU” value [1, 10] was 2.8 ± 1.9 PRU, the “VerifyNow IPR” value [1, 11] was 98 ± 1 and the “VerifyNow PRU” value [1, 11] was 3.9 ± 2.1 PRU. For the same compound, the “VerifyNow IPR” value ([1]; Study Day 5, 2.0 h, All) was 98 ± 3, the “VerifyNow PRU” value ([1]; Study Day 5, 2.0 h, All) was 4.5 ± 6.4 PRU and the “VerifyNow IPR” value [1, 12] was 99 ± 1. The “VerifyNow PRU” value [1, 12] was 2.4 ± 1.9 PRU, the “VerifyNow IPR” value [1, 13] was 97 ± 3 and the “VerifyNow PRU” value [1, 13] was 6.5 ± 8.8 PRU. For the same compound, the “VASP Index VI” value ([2]; Study Day 1, 1.75 h, All) was 13 ± 9, the “VASP Index VI” value [2, 3] was 13 ± 9 and the “VASP Index VI” value [2, 4] was 13 ± 4. The “VASP Index VI” value ([2]; Study Day 1, 2.0 h, All) was 15 ± 9, the “VASP Index VI” value [2, 5] was 11 ± 7 and the “VASP Index VI” value [2, 6] was 19 ± 7. For the same compound, the “VASP Index VI” value [2, 7] was 18 ± 10, the “VASP Index VI” value [2, 8] was 18 ± 13 and the “VASP Index VI” value [2, 9] was 19 ± 8. The “VASP Index VI” value ([2]; Study Day 5, 1.0 h, All) was 16 ± 11, the “VASP Index VI” value [2, 10] was 19 ± 14 and the “VASP Index VI” value [2, 11] was 12 ± 7. For the same compound, the “VASP Index VI” value ([2]; Study Day 5, 2.0 h, All) was 17 ± 5, the “VASP Index VI” value [2, 12] was 20 ± 3 and the “VASP Index VI” value [2, 13] was 14 ± 6.
In the case of `CCCSc1nc(N[C@@H]2C[C@H]2c2ccc(F)c(F)c2)c2nnn([C@@H]3C[C@H](OCCO)[C@@H](O)[C@H]3O)c2n1` [ticagrelor], the “VerifyNow IPR” value ([1]; 2.25 h, All) is reported as 89 ± 11, the “VerifyNow PRU” value ([1]; 2.25 h, All) is reported as 28 ± 28 PRU and the “VerifyNow IPR” value ([1]; 2.25 h, Ticagrelor at 0.5 h) is reported as 90 ± 10. For the same compound, the “VerifyNow PRU” value ([1]; 2.25 h, Ticagrelor at 0.5 h) was 28 ± 27 PRU, the “VerifyNow IPR” value ([1]; 2.25 h, Ticagrelor at 1.25 h) was 89 ± 14 and the “VerifyNow PRU” value ([1]; 2.25 h, Ticagrelor at 1.25 h) was 28 ± 32 PRU. The “VerifyNow IPR” value ([1]; 2.5 h, All) was 70 ± 31, the “VerifyNow PRU” value ([1]; 2.5 h, All) was 76 ± 79 PRU and the “VerifyNow IPR” value ([1]; 2.5 h, Ticagrelor at 0.5 h) was 78 ± 24. For the same compound, the “VerifyNow PRU” value ([1]; 2.5 h, Ticagrelor at 0.5 h) was 60 ± 64 PRU, the “VerifyNow IPR” value ([1]; 2.5 h, Ticagrelor at 1.25 h) was 62 ± 37 and the “VerifyNow PRU” value ([1]; 2.5 h, Ticagrelor at 1.25 h) was 93 ± 94 PRU. The “VerifyNow IPR” value ([1]; 2.75 h, All) was 83 ± 21, the “VerifyNow PRU” value ([1]; 2.75 h, All) was 44 ± 50 PRU and the “VerifyNow IPR” value ([1]; 2.75 h, Ticagrelor at 0.5 h) was 84 ± 15. For the same compound, the “VerifyNow PRU” value ([1]; 2.75 h, Ticagrelor at 0.5 h) was 44 ± 40 PRU, the “VerifyNow IPR” value ([1]; 2.75 h, Ticagrelor at 1.25 h) was 82 ± 27 and the “VerifyNow PRU” value ([1]; 2.75 h, Ticagrelor at 1.25 h) was 44 ± 62 PRU. The “VerifyNow IPR” value ([1]; 3 h, All) was 88 ± 19, the “VerifyNow PRU” value ([1]; 3 h, All) was 31 ± 46 PRU and the “VerifyNow IPR” value ([1]; 3 h, Ticagrelor at 0.5 h) was 87 ± 16. The “VerifyNow PRU” value ([1]; 3 h, Ticagrelor at 0.5 h) was 35 ± 42 PRU, the “VerifyNow IPR” value ([1]; 3 h, Ticagrelor at 1.25 h) was 88 ± 23 and the “VerifyNow PRU” value ([1]; 3 h, Ticagrelor at 1.25 h) was 28 ± 53 PRU. The “VerifyNow IPR” value ([1]; 4 h, All) was 96 ± 4, the “VerifyNow PRU” value ([1]; 4 h, All) was 10 ± 10 PRU and the “VerifyNow IPR” value ([1]; 4 h, Ticagrelor at 0.5 h) was 97 ± 2. The “VerifyNow PRU” value ([1]; 4 h, Ticagrelor at 0.5 h) was 7.3 ± 4.4 PRU, the “VerifyNow IPR” value ([1]; 4 h, Ticagrelor at 1.25 h) was 95 ± 5 and the “VerifyNow PRU” value ([1]; 4 h, Ticagrelor at 1.25 h) was 14 ± 14 PRU. The “VerifyNow IPR” value ([1]; reference 5.25 h, All) was 96 ± 4, the “VerifyNow PRU” value ([1]; reference 5.25 h, All) was 9.5 ± 9.7 PRU and the “VerifyNow IPR” value [1, 14] was 97 ± 2. For the same compound, the “VerifyNow PRU” value [1, 14] was 7.7 ± 5.3 PRU, the “VerifyNow IPR” value [1, 15] was 96 ± 4 and the “VerifyNow PRU” value [1, 15] was 11 ± 7 PRU. The “VASP Index VI” value ([2]; 2.25 h, All) was 35 ± 10, the “VASP Index VI” value ([2]; 2.25 h, Ticagrelor at 0.5 h) was 37 ± 8 and the “VASP Index VI” value ([2]; 2.25 h, Ticagrelor at 1.25 h) was 32 ± 11. For the same compound, the “VASP Index VI” value ([2]; 2.5 h, All) was 48 ± 49, the “VASP Index VI” value ([2]; 2.5 h, Ticagrelor at 0.5 h) was 41 ± 25 and the “VASP Index VI” value ([2]; 2.5 h, Ticagrelor at 1.25 h) was 54 ± 32. The “VASP Index VI” value ([2]; 2.75 h, All) was 22 ± 16, the “VASP Index VI” value ([2]; 2.75 h, Ticagrelor at 0.5 h) was 21 ± 13 and the “VASP Index VI” value ([2]; 2.75 h, Ticagrelor at 1.25 h) was 22 ± 20. The “VASP Index VI” value ([2]; 3 h, All) was 25 ± 19, the “VASP Index VI” value ([2]; 3 h, Ticagrelor at 0.5 h) was 24 ± 19 and the “VASP Index VI” value ([2]; 3 h, Ticagrelor at 1.25 h) was 26 ± 20. The “VASP Index VI” value ([2]; 4 h, All) was 17 ± 14, the “VASP Index VI” value ([2]; 4 h, Ticagrelor at 0.5 h) was 16 ± 14 and the “VASP Index VI” value ([2]; 4 h, Ticagrelor at 1.25 h) was 19 ± 16. The “VASP Index VI” value ([2]; reference 5.25 h, All) was 12 ± 12, the “VASP Index VI” value [2, 14] was 11 ± 10 and the “VASP Index VI” value [2, 15] was 14 ± 15.
